Reference: DBAASP
In brackets after ≈: the same amount, converted by molar mass. Several values for one entry are separate records, joined by “and”; a condition that tells them apart may be missing. Identical values can stand only once. One block for each molecule: values may come before it.

Assays:
Assay in all cases: ≥ marks a high value that may be exact or a test limit, other limits are often not marked, values filed in µg/mL are converted to µM
[1] = system: Candida albicans ATCC 2002
[2] = system: Candida albicans ATCC 90028
[3] = system: Candida albicans NCYC 1467
[4] = system: Candida parapsilosis ATCC 22019
[5] = system: Enterobacter cloacae ATCC 13047
[6] = system: Enterococcus faecalis ATCC 29212
[7] = system: Escherichia coli ATCC 25922
[8] = system: Escherichia coli IS117#
[9] = system: Escherichia coli IS218#
[10] = system: Escherichia coli IS37#
[11] = system: Escherichia coli NCTC 10418
[12] = system: Klebsiella pneumoniae ATCC 700603
[13] = system: Klebsiella pneumoniae IS59#
[14] = system: Pseudomonas aeruginosa ATCC 27853
[15] = system: Pseudomonas aeruginosa CMCCB 1010
[16] = system: Pseudomonas aeruginosa IS350#
[17] = system: Shigella dysenteriae
[18] = system: Staphylococcus aureus ATCC 25923
[19] = system: Staphylococcus aureus IS10#
[20] = system: Staphylococcus aureus IS37#
[21] = system: Staphylococcus aureus NCTC 10788
[22] = system: Escherichia coli HB101
[23] = system: Escherichia coli J2210
[24] = system: Escherichia coli JJ2489
[25] = system: Escherichia coli JW0013
[26] = system: Escherichia coli JW0368 ΔsbmA
[27] = system: Escherichia coli JW2778 ΔygdD
[28] = system: Escherichia coli MC1041
[29] = system: Escherichia coli
[30] = system: Salmonella enterica serovar Tennessee
[31] = system: Salmonella enterica subsp. enterica serovar Enteritidis MH91989
[32] = system: Salmonella enterica subsp. enterica serovar Infantis
[33] = system: Salmonella enterica subsp. enterica serovar Newport
[34] = system: Salmonella typhimurium SL1344
[35] = system: Escherichia coli KCTC 1682
[36] = system: Pseudomonas aeruginosa KCTC 1637
[37] = system: Staphylococcus aureus KCTC 1621
[38] = system: Staphylococcus aureus NCTC 12981
[39] = system: Staphylococcus aureus USA 100
[40] = system: Staphylococcus epidermidis KCTC 1917
[41] = system: Acinetobacter baumannii ATCC 19606
[42] = system: Acinetobacter johnsonii NCDC 0072
[43] = system: Bacillus cereus NCDC 0240
[44] = system: Bacillus subtilis ATCC 6051
[45] = system: Escherichia coli D31
[46] = system: Escherichia coli MTCC 0723
[47] = system: Listeria monocytogenes ATCC 19111
[48] = system: Pseudomonas aeruginosa NCDC 0105
[49] = system: Pseudomonas aeruginosa PAO1
[50] = system: Salmonella enterica subsp. enterica serovar Typhimurium ATCC 14028
[51] = system: Salmonella enterica subsp. enterica serovar Typhimurium ATCC 700931
[52] = system: Staphylococcus aureus ATCC 29213
[53] = system: Staphylococcus aureus ATCC 35556
[54] = system: Staphylococcus aureus NCDC 0111

- MIC [1]: 0.51 µM (≈ 0.999 µg/mL)
- MIC [2]: 2.55 µM (≈ 4.99 µg/mL)
- MIC [3]: 32 µM (≈ 62.6 µg/mL)
- MIC [4]: 1.28 µM (≈ 2.5 µg/mL)
- MIC [5]: 5.1 µM (≈ 9.99 µg/mL)
- MIC [6]: 5.1 µM (≈ 9.99 µg/mL)
- MIC [7]: 5.1 µM (≈ 9.99 µg/mL)
- MIC [8]: 5.1 µM (≈ 9.99 µg/mL)
- MIC [9]: 2.55 µM (≈ 4.99 µg/mL)
- MIC [10]: 2.55 µM (≈ 4.99 µg/mL)
- MIC [11]: ≥ 64 µM
- MIC [12]: 1.28 µM (≈ 2.5 µg/mL)
- MIC [13]: 5.1 µM (≈ 9.99 µg/mL)
- MIC [14]: 2.55 µM (≈ 4.99 µg/mL)
- MIC [15]: 1.28 µM (≈ 2.5 µg/mL)
- MIC [16]: 5.1 µM (≈ 9.99 µg/mL)
- MIC [17]: 2.55 µM (≈ 4.99 µg/mL)
- MIC [18]: 2.55 µM (≈ 4.99 µg/mL)
- MIC [19]: 10.2 µM (≈ 20 µg/mL)
- MIC [20]: 10.2 µM (≈ 20 µg/mL)
- MIC [21]: 32 µM (≈ 62.6 µg/mL)
Structure (SMILES): CC[C@H](C)[C@H](NC(=O)CNC(=O)[C@H](CO)NC(=O)[C@H](CC(C)C)NC(=O)[C@H](CC(C)C)NC(=O)CN)C(=O)N[C@@H](CC(C)C)C(=O)NCC(=O)N[C@@H](C)C(=O)NCC(=O)N[C@@H](CCCCN)C(=O)N[C@@H](CCCCN)C(=O)N[C@H](C(=O)N[C@H](C(=O)N[C@H]1CSSC[C@@H](C(=O)O)NC(=O)[C@H](CC(C)C)NC(=O)CNC(=O)[C@H](CO)NC(=O)[C@H](CC(C)C)NC(=O)CNC1=O)C(C)C)[C@@H](C)CC [GLLSGILGAGKKIVCGLSGLC]

- MIC [7]: 11.3 µM (≈ 22.9 µg/mL)
- MIC [22]: 11.3 µM (≈ 22.9 µg/mL)
Structure (SMILES): CC[C@H](C)[C@H](NC(=O)[C@H](CCCN=C(N)N)NC(=O)[C@@H](N)CCCN=C(N)N)C(=O)N[C@@H](CCCN=C(N)N)C(=O)N1CCC[C@H]1C(=O)N[C@@H](CCCN=C(N)N)C(=O)N1CCC[C@H]1C(=O)N1CCC[C@H]1C(=O)N[C@@H](CCCN=C(N)N)C(=O)N[C@@H](CC(C)C)C(=O)N1CCC[C@H]1C(=O)N[C@@H](CCCN=C(N)N)C(=O)N1CCC[C@H]1C(=O)N[C@@H](CCCN=C(N)N)C(=O)N1CCC[C@H]1C(=O)N[C@@H](CS)C(=O)O [RRIRPRPPRLPRPRPC]

- MIC [23]: 0.786 µM (≈ 1.84 µg/mL)
- MIC [24]: 0.6 µM (≈ 1.4 µg/mL)
- MIC [25]: 0.15 µM (≈ 0.351 µg/mL)
- MIC [26]: 2.4 µM (≈ 5.62 µg/mL)
- MIC [27]: 0.6 µM (≈ 1.4 µg/mL)
- MIC [28]: 0.416 µM (≈ 0.974 µg/mL)
- MIC [29]: > 0.416 µM and 0.6 µM
- MIC [30]: 0.6 µM (≈ 1.4 µg/mL)
- MIC [31]: 1.2 µM (≈ 2.81 µg/mL)
- MIC [32]: 0.6 µM (≈ 1.4 µg/mL)
- MIC [33]: 0.416 µM (≈ 0.974 µg/mL)
- MIC [34]: 1.2 µM (≈ 2.81 µg/mL)
Structure (SMILES): CC[C@H](C)[C@H](NC(=O)[C@@H]1CCCN1C(=O)[C@H](CCCN=C(N)N)NC(=O)[C@@H]1CCCN1C(=O)[C@@H]1CCCN1C(=O)[C@@H](NC(=O)[C@@H]1CCCN1C(=O)[C@H](CCCN=C(N)N)NC(=O)[C@@H]1CCCN1C(=O)[C@H](CC(C)C)NC(=O)[C@H](Cc1ccc(O)cc1)NC(=O)[C@H](CO)NC(=O)CNC(=O)[C@H](CCCCN)NC(=O)[C@H](CC(=O)O)NC(=O)[C@@H](N)C(C)C)[C@@H](C)O)C(=O)N[C@@H](Cc1ccc(O)cc1)C(=O)N[C@@H](CC(N)=O)C(=O)N[C@@H](CCCN=C(N)N)C(=O)N[C@@H](CC(N)=O)C(=O)O [VDKGSYLPRPTPPRPIYNRN]

- MIC [35]: ≥ 45.5 µM
- MIC [11]: ≥ 182 µM
- MIC [36]: ≥ 45.5 µM
- MIC [37]: ≥ 45.5 µM
- MIC [38]: ≥ 182 µM
- MIC [39]: ≥ 50 µM
- MIC [40]: 11.4 µM (≈ 7.99 µg/mL)
Structure (SMILES): NC(=O)[C@H](CCCN=C(N)N)NC(=O)[C@H](Cc1c[nH]c2ccccc12)NC(=O)[C@H](CCCN=C(N)N)NC(=O)[C@@H](N)Cc1c[nH]c2ccccc12 [WRWR]

- MIC [41]: 3.75 µM (≈ 6.78 µg/mL)
- MIC [42]: 12.5 µM (≈ 22.6 µg/mL)
- MIC [43]: 12.5 µM (≈ 22.6 µg/mL)
- MIC [44]: 0.23 µM (≈ 0.416 µg/mL)
- MIC [45]: 7.5 µM (≈ 13.6 µg/mL)
- MIC [46]: 6 µM (≈ 10.8 µg/mL)
- MIC [12]: > 15 µM
- MIC [47]: 12.5 µM (≈ 22.6 µg/mL)
- MIC [14]: 0.4 µM (≈ 0.723 µg/mL)
- MIC [48]: 3 µM (≈ 5.42 µg/mL)
- MIC [49]: 15 µM (≈ 27.1 µg/mL)
- MIC [50]: 6 µM (≈ 10.8 µg/mL)
- MIC [51]: 15 µM (≈ 27.1 µg/mL)
- MIC [52]: 0.4 µM (≈ 0.723 µg/mL)
- MIC [53]: 3.75 µM (≈ 6.78 µg/mL)
- MIC [54]: 0.4 µM (≈ 0.723 µg/mL)
Structure (SMILES): CC[C@H](C)[C@H](NC(=O)[C@H](Cc1c[nH]c2ccccc12)NC(=O)[C@@H](NC(=O)[C@H](Cc1c[nH]c2ccccc12)NC(=O)[C@@H]1CCCN1C(=O)[C@@H](NC(=O)[C@H](C)N)[C@@H](C)CC)[C@@H](C)CC)C(=O)N[C@@H](Cc1c[nH]c2ccccc12)C(=O)N[C@@H](CCCN=C(N)N)C(=O)N[C@@H](CC(C)C)C(=O)N[C@@H](CC(C)C)C(=O)N[C@@H](CCCN=C(N)N)C(=O)N[C@@H](CCCCN)C(=O)NCC(=O)O [AIPWIWIWRLLRKG]
